Measured values from US7498349B2, “Biaryl compounds having anti-infective activity” (Genesoft Pharmaceuticals, Inc., priority 2002, dated 2009).
Values after ≈ are worked out from the molar mass of the structure shown.

What was measured:
[1] = test system: S. aureus ATCC 27660; assay: MIC, NCCLS broth microdilution assay; type: cell-based, Staphylococcus aureus; settings: S. aureus ATCC 27660, methicillin resistant strain (MRSA)
Text: (§1) In vitro biological activity data were collected for a variety of microorganisms, including Bacillus cereus (ATCC 11778), Staphylococcus aureus (ATCC 33591; ATCC 27660, a methicillin resistant strain (MRSA); ATCC 13709, a methicillin sensitive strain (MSSA)), Escherichia coli (ATCC 25922), Enterococcus faecalis (ATCC 29212), Streptococcus pneumoniae (ATCC 49619; ATCC 51422, a penicillin resistant strain (PRSP)), Enterococcus faecium (ATCC 51559, a vancomycin resistant strain (VRE)), and Staphylococcus epidermidis (ATCC 12228).
(§2) The minimal inhibition concentration (MIC) of these compounds was determined using the National Committee for Clinical Laboratory Standards (NCCLS) broth microdilution assay in microtiter plates, as set forth in: (1) the guidelines of the National Committee for Clinical Laboratory Standards (NCCLS) Document M7-A4 (NCCLS, 1997); (2) the guidelines of the National Committee for Clinical Laboratory Standards (NCCLS) Document M11-A4 (NCCLS, 1997); and (3) the guidelines and reference method of the National Committee for Clinical Laboratory Standards (NCCLS) Document M27 -T (NCCLS, 1995).

[2] = test system: C. albicans ATCC 38247; assay: MIC, antifungal assay; type: cell-based, Candida albicans; settings: C. albicans ATCC 38247
[3] = test system: E. faecalis ATCC 29212; assay: MIC, NCCLS broth microdilution assay; type: cell-based, Enterococcus faecalis; settings: E. faecalis ATCC 29212
[4] = test system: S. aureus ATCC 33591; assay: MIC, NCCLS broth microdilution assay; type: cell-based, Staphylococcus aureus; settings: S. aureus ATCC 33591
[5] = test system: S. aureus ATCC 13709; assay: MIC, NCCLS broth microdilution assay; type: cell-based, Staphylococcus aureus; settings: S. aureus ATCC 13709, methicillin sensitive strain (MSSA)
[6] = test system: S. pneumoniae ATCC 49619; assay: MIC, NCCLS broth microdilution assay; type: cell-based, Streptococcus pneumoniae; settings: S. pneumoniae ATCC 49619
[7] = test system: E. coli ATCC 25922; assay: MIC, NCCLS broth microdilution assay; type: cell-based, Escherichia coli; settings: E. coli ATCC 25922
[8] = test system: S. epidermidis ATCC 12228; assay: MIC, NCCLS broth microdilution assay; type: cell-based, Staphylococcus epidermidis
Text: as §1, §2

[9] = test system: B. cereus ATCC 11778; assay: MIC, NCCLS broth microdilution assay; type: cell-based, Bacillus cereus; settings: B. cereus ATCC 11778

Compound	Minimum Inhibitory Concentration (MIC) [1]	Minimum Inhibitory Concentration (MIC) [2]	Minimum Inhibitory Concentration (MIC) [3]	Minimum Inhibitory Concentration (MIC) [4]	Minimum Inhibitory Concentration (MIC) [5]	Minimum Inhibitory Concentration (MIC) [6]	Minimum Inhibitory Concentration (MIC) [7]	Minimum Inhibitory Concentration (MIC) [8]	Minimum Inhibitory Concentration (MIC) [9]	MIC ([1]; Staphylococcus aureus, ATCC 27660 / MRSA, read-out: Minimum Inhibitory Concentration (MIC)) [µg/mL]	MIC ([2]; Candida albicans, ATCC38247, read-out: Minimum Inhibitory Concentration (MIC)) [µg/mL]	MIC ([3]; Enterococcus faecalis, ATCC29212, read-out: Minimum Inhibitory Concentration (MIC)) [µg/mL]	MIC ([4]; Staphylococcus aureus, ATCC33591, read-out: Minimum Inhibitory Concentration (MIC)) [µg/mL]	MIC ([5]; Staphylococcus aureus, ATCC 13709 / MSSA, read-out: Minimum Inhibitory Concentration (MIC)) [µg/mL]	MIC ([7]; Escherichia coli, ATCC25922, read-out: Minimum Inhibitory Concentration (MIC)) [µg/mL]	MIC ([8]; Staphylococcus epidermidis, ATCC12228, read-out: Minimum Inhibitory Concentration (MIC)) [µg/mL]	MIC ([9]; Bacillus cereus, ATCC11778, read-out: Minimum Inhibitory Concentration (MIC)) [µg/mL]
NCCCCNc1ncccc1C(=O)Nc1ccc(-c2cc3ccccc3o2)cc1 [Compound A-18]	+++ (MIC ≦ 4)	++ (4 < MIC < 12)	++ (4 < MIC < 12)	+++ (MIC ≦ 4)	+++ (MIC ≦ 4)	+++ (MIC ≦ 4)	>32 µg/mL	+++ (MIC ≦ 4)	+++ (MIC ≦ 4)	–	–	–	–	–	–	–	–
O=C(Nc1ccc(-c2cc3ccccc3o2)cc1)c1cccnc1NCCCNC1CCCCC1 [Compound A-12]	–	+ (12 ≦ MIC ≦ 32)	++ (4 < MIC < 12)	–	–	++ (4 < MIC < 12)	>32 µg/mL	+ (12 ≦ MIC ≦ 32)	+ (12 ≦ MIC ≦ 32)	–	–	–	–	–	–	–	–
CN(C)CCCNc1ncccc1C(=O)Nc1ccc(-c2cc3ccccc3s2)cc1 [Compound A-50]	+++ (MIC ≦ 4)	+++ (MIC ≦ 4)	+++ (MIC ≦ 4)	+++ (MIC ≦ 4)	+++ (MIC ≦ 4)	+ (12 ≦ MIC ≦ 32)	>32 µg/mL	+++ (MIC ≦ 4)	+++ (MIC ≦ 4)	–	–	–	–	–	–	–	–
O=C(Nc1ccc(-c2cc3ccccc3o2)nc1)c1ccc(Cl)cc1NCCN1CCNCC1 [Compound A-42]	++ (4 < MIC < 12)	>32 µg/mL	++ (4 < MIC < 12)	–	++ (4 < MIC < 12)	+ (12 ≦ MIC ≦ 32)	>32 µg/mL	++ (4 < MIC < 12)	++ (4 < MIC < 12)	–	–	–	–	–	–	–	–
Cc1cc(NC(=O)c2nsc(NCCN3CCCCC3)c2Cl)ccc1-c1cc2ccccc2o1 [Compound A-32]	–	–	–	–	–	–	–	–	–	< 4	4 to 12 (≈ 8.08 to 24.2 µM)	< 4	< 4	< 4	12 to 32 (≈ 24.2 to 64.6 µM)	< 4	> 32
NCCNc1ncccc1C(=O)Nc1ccc(-c2cc3ccccc3o2)cc1 [Compound A-19]	+++ (MIC ≦ 4)	++ (4 < MIC < 12)	+++ (MIC ≦ 4)	+++ (MIC ≦ 4)	+++ (MIC ≦ 4)	+ (12 ≦ MIC ≦ 32)	>32 µg/mL	+++ (MIC ≦ 4)	+++ (MIC ≦ 4)	–	–	–	–	–	–	–	–
O=C(Nc1ccc(-c2cc3ccccc3s2)cc1)c1cccnc1NCCN1CCCC1 [Compound A-49]	+++ (MIC ≦ 4)	+++ (MIC ≦ 4)	+++ (MIC ≦ 4)	+++ (MIC ≦ 4)	+++ (MIC ≦ 4)	+ (12 ≦ MIC ≦ 32)	>32 µg/mL	+++ (MIC ≦ 4)	+++ (MIC ≦ 4)	–	–	–	–	–	–	–	–
CN(C)CCCNc1snc(C(=O)Nc2ccc(-c3cc4ccccc4s3)cc2)c1Cl [Compound A-47]	+++ (MIC ≦ 4)	+++ (MIC ≦ 4)	+++ (MIC ≦ 4)	+++ (MIC ≦ 4)	+++ (MIC ≦ 4)	>32 µg/mL	>32 µg/mL	+++ (MIC ≦ 4)	>32 µg/mL	–	–	–	–	–	–	–	–
NCCCCNc1ncccc1C(=O)Nc1ccc(-c2cc3ccccc3s2)nc1 [Compound A-75]	+++ (MIC ≦ 4)	>32 µg/mL	+++ (MIC ≦ 4)	+++ (MIC ≦ 4)	+++ (MIC ≦ 4)	+ (12 ≦ MIC ≦ 32)	>32 µg/mL	–	+++ (MIC ≦ 4)	–	–	–	–	–	–	–	–
O=C(Nc1ccc(-c2cc3ccccc3[nH]2)cc1)c1nsc(NCCN2CCNCC2)c1Cl [Compound A-59]	++ (4 < MIC < 12)	+++ (MIC ≦ 4)	+++ (MIC ≦ 4)	+ (12 ≦ MIC ≦ 32)	++ (4 < MIC < 12)	+ (12 ≦ MIC ≦ 32)	>32 µg/mL	–	+ (12 ≦ MIC ≦ 32)	–	–	–	–	–	–	–	–
O=C(Nc1ccc(-c2cc3ccccc3s2)cc1)c1nsc(NCCN2CCCC2)c1Cl [Compound A-46]	+ (12 ≦ MIC ≦ 32)	>32 µg/mL	>32 µg/mL	>32 µg/mL	+ (12 ≦ MIC ≦ 32)	>32 µg/mL	>32 µg/mL	–	>32 µg/mL	–	–	–	–	–	–	–	–
NCCNc1snc(C(=O)Nc2ccc(-c3cc4ccccc4o3)nc2)c1Cl [Compound A-38]	+++ (MIC ≦ 4)	+ (12 ≦ MIC ≦ 32)	+++ (MIC ≦ 4)	+++ (MIC ≦ 4)	+++ (MIC ≦ 4)	>32 µg/mL	>32 µg/mL	–	+++ (MIC ≦ 4)	–	–	–	–	–	–	–	–
Cc1cc(NC(=O)c2cccnc2NCCCCN)ccc1-c1cc2ccccc2o1 [Compound A-29]	+++ (MIC ≦ 4)	+ (12 ≦ MIC ≦ 32)	+++ (MIC ≦ 4)	+++ (MIC ≦ 4)	+++ (MIC ≦ 4)	+ (12 ≦ MIC ≦ 32)	>32 µg/mL	–	+++ (MIC ≦ 4)	–	–	–	–	–	–	–	–
CN(CCCN)CCCNc1snc(C(=O)Nc2ccc(-c3cc4ccccc4o3)cc2)c1Cl [Compound A-8]	+++ (MIC ≦ 4)	++ (4 < MIC < 12)	+++ (MIC ≦ 4)	+++ (MIC ≦ 4)	+++ (MIC ≦ 4)	+ (12 ≦ MIC ≦ 32)	+ (12 ≦ MIC ≦ 32)	+++ (MIC ≦ 4)	+++ (MIC ≦ 4)	–	–	–	–	–	–	–	–
CCN(CC)CCCNc1cc(Cl)ccc1C(=O)Nc1ccc(-c2cc3ccccc3o2)cc1 [Compound A-23]	+++ (MIC ≦ 4)	+ (12 ≦ MIC ≦ 32)	+++ (MIC ≦ 4)	+++ (MIC ≦ 4)	+++ (MIC ≦ 4)	+ (12 ≦ MIC ≦ 32)	>32 µg/mL	–	+++ (MIC ≦ 4)	–	–	–	–	–	–	–	–
